Series [1] addresses AKT3. The following applies: ASO.
In series [2] the target is TRADD. The following applies: ASO.

These antisense oligonucleotides have a phosphorothioate backbone; sugars and methylation of C are not fully specified.
Note: test concentration or dose not given here.

In series [1], AAAGGTAACCTCCCACAC displayed a remaining target (mRNA or protein) (fraction of control) of 0.19.
Take AAATGTGTTTGGCTTTGG: the remaining target (mRNA or protein) (fraction of control) in series [1] was at least 1.
The sequence AACCCAACCTTCTTTCAC had a remaining target (mRNA or protein) (fraction of control) in series [1] of at least 1.
Regarding AACCTCCCACACATCATT, the remaining target (mRNA or protein) (fraction of control) in series [1] is 0.22.
AACTGTGTCTCATAATTT returned a remaining target (mRNA or protein) (fraction of control) in series [1] of at least 1.
The same measure, in the same setting: the result for AAGGTAAATCCACATCTT reads 0.66.
As for AAGTTTCTCATGGTCCTG, the remaining target (mRNA or protein) (fraction of control) in series [1] stood at 0.43.
AATCCACATCTTGAGGTT had a remaining target (mRNA or protein) (fraction of control) in series [1] of at least 1.
As to AATGATTTTGCATCTGAA, the remaining target (mRNA or protein) (fraction of control) in series [1] amounted to 0.94.
On to ACAATTCATTCTCTCCTC, for which the remaining target (mRNA or protein) (fraction of control) in series [1] is at least 1.
Still for that read-out and setting: the result for ACTGAAAAGTTGTTGAGG reads at least 1.
The sequence AGAGAAGAAACTGTGTCT registered a remaining target (mRNA or protein) (fraction of control) in series [1] of at least 1.
Take AGCCTGGATAGCTTCTGT: the remaining target (mRNA or protein) (fraction of control) in series [1] is at least 1.
AGCTTCTGTCCATTCTTC registered a remaining target (mRNA or protein) (fraction of control) in series [1] of at least 1.
AGTCTACTGCTCGGCCAT gave a remaining target (mRNA or protein) (fraction of control) in series [1] of 0.21.
ATATACATCTTGCCAGTT returned a remaining target (mRNA or protein) (fraction of control) in series [1] of 0.87.
The sequence ATATATTCTCCCCTCTTC had a remaining target (mRNA or protein) (fraction of control) in series [1] of at least 1.
In series [1], ATCAAGAGCCCTGAAAGC returned a remaining target (mRNA or protein) (fraction of control) of 0.29.
In the case of ATTATCAATTTGTGAAGT, the remaining target (mRNA or protein) (fraction of control) in series [1] is at least 1.
ATTCTCTCCTCTTCTTGC had a remaining target (mRNA or protein) (fraction of control) in series [1] of at least 1.
ATTCTTCATCAAAATATC: the remaining target (mRNA or protein) (fraction of control) in series [1] is at least 1.
The same measure, in the same setting: as for ATTTGGATCCTTTATCAA, the figure is at least 1.
Turning to CAACCCCTAGGCCCCACC, the remaining target (mRNA or protein) (fraction of control) in series [1] stood at 0.16.
CATCTTGAGGTTTCTCTT displayed a remaining target (mRNA or protein) (fraction of control) in series [1] of at least 1.
Consider CCATCTGTCTTCAAAAGG, for which the remaining target (mRNA or protein) (fraction of control) in series [1] was at least 1.
As to CCCACACATCATTTCATA, the remaining target (mRNA or protein) (fraction of control) in series [1] is 0.25.
Consider CCCGCCGCTCTCTGCCAA, for which the remaining target (mRNA or protein) (fraction of control) in series [2] is at least 1.
Turning to CCCTCGCGCTCGTACTCG, the remaining target (mRNA or protein) (fraction of control) in series [2] turned out to be 0.42.
As for CCGAAGCGACCTCCCCGT, the remaining target (mRNA or protein) (fraction of control) in series [2] is at least 1.
On the same count and under the same terms, as for CCGACAGAGAGGGCACCG, the figure is at least 1; as for CCGTGTTATACTTTATTA, at least 1; as for CGATTCACTACAGGCTGA, 0.86.
Sequence CGCAGCGCATCCTCCAGC came in with a remaining target (mRNA or protein) (fraction of control) in series [2] of 0.99.
Sequence CGGTCGGGCTGCTGGGCT returned a remaining target (mRNA or protein) (fraction of control) in series [2] of at least 1.
For CGTAGGCCAGCGAGTCCA, the remaining target (mRNA or protein) (fraction of control) in series [2] was at least 1.
In series [1], CTACATGAAATGTTCTCT displayed a remaining target (mRNA or protein) (fraction of control) of at least 1.
CTAGGCCCCACCAGTCTA had a remaining target (mRNA or protein) (fraction of control) in series [1] of 0.17.
CTATGAATGAGCCATCTG returned a remaining target (mRNA or protein) (fraction of control) in series [1] of 0.99.
Consider CTCACCTCCTGGCCGCCT, for which the remaining target (mRNA or protein) (fraction of control) in series [2] was found to be 0.76.
For the sequence CTCCACCAAGGCGTTTAT, in series [1], the remaining target (mRNA or protein) (fraction of control) came out at 0.12.
On to CTCTTCGTGCCCATTTTG, for which the remaining target (mRNA or protein) (fraction of control) in series [2] is 0.89.
In series [1], CTCTTCTAAACCCAACCT registered a remaining target (mRNA or protein) (fraction of control) of 0.79.
Same read-out and setting: as for CTCTTTATATCCTATGAA, the figure is at least 1; as for CTGAAGAGAGTGTTCGAG, at least 1; as for CTGCTCGGCCATAGTCAT, 0.19.
With CTGTTTTACTTCACTGCA, in series [2], the remaining target (mRNA or protein) (fraction of control) was at least 1.
The sequence CTGTTTTCATTAACTGGC registered a remaining target (mRNA or protein) (fraction of control) in series [1] of at least 1.
In series [2], CTTGCGCCATTTGAGACC had a remaining target (mRNA or protein) (fraction of control) of 0.7.
In turn, CTTTTGCGTCATCTGGTC displayed a remaining target (mRNA or protein) (fraction of control) in series [1] of at least 1.
Consider GACCCTGGAACAGAAAAG, for which the remaining target (mRNA or protein) (fraction of control) in series [2] came to 0.9.
Sequence GAGACATCTGATTATAAA returned a remaining target (mRNA or protein) (fraction of control) in series [1] of at least 1.
On the same count and under the same terms, the result for GAGGAAATTTAATGTCTT reads at least 1.
As to GAGGACTCCACAAACAGG, the remaining target (mRNA or protein) (fraction of control) in series [2] was found to be 0.93.
In series [2], GAGGCAGAATCCCCAATG came in with a remaining target (mRNA or protein) (fraction of control) of at least 1.
On the same count and under the same terms, the result for GAGTCCAGCGCCGGGTCC reads 0.48.
The sequence GATCCTTTATCAAGAGCC showed a remaining target (mRNA or protein) (fraction of control) in series [1] of 0.4.
Turning to GATGCAACTCAAACAGCG, in series [2], the remaining target (mRNA or protein) (fraction of control) is at least 1.
GATTATAAATGTGTTTGG gave a remaining target (mRNA or protein) (fraction of control) in series [1] of at least 1.
GCACGAAGCGCCGCAGCA displayed a remaining target (mRNA or protein) (fraction of control) in series [2] of at least 1.
